# Data published in PubChem BioAssay (NCI).
#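 Five concentrations, 48 hours, 96-well plates. The concentration for 50% growth inhibition is given as GI50. TGI is the concentration that stops growth completely.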
# Key:
# Test in all cases: growth of human tumour cells (NCI), 48 h
# [1] = test system: NCI-H226 lung
# [2] = test system: NCI-H23 lung
# [3] = test system: NCI-H460 lung
# [4] = test system: NCI-H522 lung
# [5] = test system: NCI/ADR-RES ovarian
# [6] = test system: OVCAR-3 ovarian
# [7] = test system: OVCAR-4 ovarian
# [8] = test system: OVCAR-5 ovarian
# [9] = test system: OVCAR-8 ovarian
# [10] = test system: PC-3 prostate
# [11] = test system: RPMI-8226 leukemia
# [12] = test system: RXF 393 renal
# [13] = test system: SF-268 CNS
# [14] = test system: SF-295 CNS
# [15] = test system: SF-539 CNS
# [16] = test system: SK-MEL-2 melanoma
# [17] = test system: SK-MEL-28 melanoma
# [18] = test system: SK-MEL-5 melanoma
# [19] = test system: SK-OV-3 ovarian
# [20] = test system: SN12C renal
# [21] = test system: SNB-19 CNS
# [22] = test system: SNB-75 CNS
# [23] = test system: SR leukemia
# [24] = test system: SW-620 colon
# [25] = test system: T-47D breast
# [26] = test system: TK-10 renal
# [27] = test system: U251 CNS
# [28] = test system: UACC-257 melanoma
# [29] = test system: UACC-62 melanoma
# [30] = test system: UO-31 renal
smiles,measurement,setting,value
O=c1cc(-c2ccccc2)oc2cc(OCCCC[P+](c3ccccc3)(c3ccccc3)c3ccccc3)cc(O)c12,TGI,[1],4.2 µM
same,GI50,[2],1.1 µM
same,TGI,[2],2.74 µM
same,GI50,[3],0.509 µM
same,TGI,[3],1.81 µM
same,GI50,[4],0.789 µM
same,TGI,[4],2.54 µM
same,GI50,[5],3.29 µM
same,TGI,[5],> 100 µM
same,GI50,[6],0.526 µM
same,TGI,[6],2.22 µM
same,GI50,[7],0.549 µM
same,TGI,[7],6.76 µM
same,GI50,[8],1.58 µM
same,TGI,[8],5.11 µM
same,GI50,[9],1.04 µM
same,TGI,[9],6.1 µM
same,GI50,[10],0.899 µM
same,TGI,[10],2.7 µM
same,GI50,[11],0.303 µM
same,TGI,[11],1.82 µM
same,GI50,[12],0.707 µM
same,TGI,[12],2.15 µM
same,GI50,[13],1.29 µM
same,TGI,[13],3.56 µM
same,GI50,[14],1.41 µM
same,TGI,[14],2.76 µM
same,GI50,[15],0.892 µM
same,TGI,[15],2.15 µM
same,GI50,[16],0.238 µM
same,TGI,[16],0.603 µM
same,GI50,[17],0.601 µM
same,TGI,[17],1.83 µM
same,GI50,[18],0.276 µM
same,TGI,[18],0.693 µM
same,GI50,[19],0.728 µM
same,TGI,[19],1.92 µM
same,GI50,[20],0.603 µM
same,TGI,[20],1.66 µM
same,GI50,[21],0.41 µM
same,TGI,[21],1.42 µM
same,GI50,[22],0.419 µM
same,TGI,[22],1.68 µM
same,GI50,[23],0.834 µM
same,TGI,[23],> 100 µM
same,GI50,[24],0.997 µM
same,TGI,[24],2.67 µM
same,GI50,[25],0.273 µM
same,TGI,[25],2.77 µM
same,GI50,[26],0.903 µM
same,TGI,[26],3.27 µM
same,GI50,[27],0.716 µM
same,TGI,[27],2.16 µM
same,GI50,[28],0.548 µM
same,TGI,[28],1.9 µM
same,GI50,[29],0.573 µM
same,TGI,[29],1.56 µM
same,GI50,[30],1.39 µM
same,TGI,[30],2.89 µM
